Test results: patent US20250276038A1, “HISTATIN COMBINATIONS AND METHODS FOR TREATING OR INHIBITING CELL LOSS” (VISUS THERAPEUTICS, INC., priority 2021, published 2025)
Where no end group is shown, it is not given here.

Key:
stromal keratocytes = test: Loss of stromal keratocytes after surgical keratectomy (in vivo confocal corneal tomography, keratocyte counts); design: species or system New Zealand White rabbits; conditions: for Percent keratocyte reduction from baseline: 35 μl topical TID, 80 μM histatin-1 (+100 μM peptide 6 in combination), mean±SD
Experimental: Twenty-four New Zealand White rabbits, approximately 4-6 months old and weighing 2-3 kg were divided into 3 groups of 8 animals and dosed topically three times per day (TID) for 28 days with either 35 μl Phosphate Buffered Saline (PBS), 35 μl 80 μM histatin-1 (Hst-1), or 35 μl 80 μM histatin-1+100 μM peptide 6 (P6) combination following unilateral surgical keratectomy procedure.
(§1) Animals were administered buprenorphine (0.01-0.05 mg/kg, SC) for pain control just prior to the procedure. A second dose of buprenorphine (0.01-0.05 mg/kg, SC) was administered in the evening, and then administered on an as needed basis. Animals was induced for surgery with a ketamine/xylazine cocktail (50 mg/kg ketamine and 10 mg/kg xylazine IM); anesthesia was maintained with isoflurane delivered in oxygen through a mask as needed. Following induction of anesthesia, 5% betadine solution, on autoclaved sterile gauze, was used to clean the periocular (eyelids) area of the surgical eye. Betadine was then used to irrigate the ocular surface and conjunctival cul-de-sac, which was then thoroughly irrigated with sterile eyewash. One drop each of 0.5% proparacaine HCl and 10% phenylephrine HCl, was then applied to the ocular surface for ocular anesthesia and mydriasis, respectively. The rabbit was positioned under an operating microscope and an eyelid speculum was affixed. An adjustable, 8 mm corneal vacuum trephine (Moria Surgical, Antony, France) was used to create a central corneal defect of approximately 10-25% stromal depth (approximately 100 μm). The trephined section of the cornea was removed, and the wound left open. Immediately following surgery, a single dose of topical antibiotic (Neomycin Polymyxin B Sulfates Gramicidin ophthalmic solution) was applied.
The corneas of anesthetized animals were imaged with a Heidelberg Retinal Tomograph fitted with a Rostock Corneal Module (HRT III RCM). This compact ophthalmic device uses confocal scanning laser microscopy to provide high-resolution en-face images of cornea cells and structures, including keratocytes subpopulations and the corneal sub-basal nerve plexus. Central cornea confocal scans from the epithelium to the endothelium were done and optical stacks of 400 μm×400 μm and 2 μm thick sections were generated and electronically stored for analysis.
A sampling region of the stack of optical scans was selected that corresponded to approximately 150 μm above the endothelium. This was done by counting 75 images up from the endothelium and selecting 5 adjacent images to serve as replicates. Keratocytes presented as reflective distinct irregular shaped objects. […] An unpaired Student's T test was used to compare the histatin-1 and the histatin-1+peptide 6 groups; p<0.05 was considered statistically significant.

[1] = system: corneal endothelial cells; test: Corneal endothelial cell density after surgical anterior keratectomy (corneal tomography); format: in vivo, New Zealand White rabbits; conditions: 35 μl 80 μM topical TID; for Percent endothelial cell density reduction from baseline: mean±SD
Experimental: Sixteen New Zealand White rabbits, approximately 4-6 months old and weighing 2-3 kg were divided into 2 groups of 8 animals and dosed topically three times per day (TID) for 28 days with either 35 μl phosphate buffered saline (PBS) or 35 μl 80 μM histatin-1 following unilateral surgical keratectomy procedure.
as §1, with “Animals were” for “Animals was”, “The rabbits were” for “The rabbit was”
The corneas of anesthetized animals were imaged with a Heidelberg Retinal Tomograph fitted with a Rostock Corneal Module (HRT III RCM). This compact ophthalmic device uses confocal scanning laser microscopy to provide high-resolution en-face images of cornea cells and structures, including corneal sub-basal nerve plexus, keratocytes subpopulations and the corneal endothelial cell layer. Central cornea confocal scans from the epithelium to the endothelium were done and optical stacks of 400×400 μm and 2 μm thick sections were generated and electronically stored for analysis.
The optical slice with the endothelium layer having the best resolution and largest coverage was selected. Of the 16 animals in the study, only 14 animals had scans with usable endothelial cell layers at 1 or more time points, and a maximum of only 4 usable scans at any single time point. The HRT III cell counting software was used to adjust image contrast and brightness to enhance manual cell counting within a selected region of interest (ROI). ROIs were >0.005 mm^2. Number of cells within a ROI ranged from 118-287. Partial cells (>½) at the edges of the ROI were counted only on 2 sides at right angles. The software computed endothelial cell density as cells/mm^2 based on manual counts in the selected ROI. Data are presented as mean±standard deviation cells/mm^2. An unpaired Student's T test was used to compare the PBS and histatin-1 groups at each follow-up time point; p<0.05 was considered statistically significant.

corneal nerves = test: Corneal nerve regeneration after surgical anterior keratectomy (Tuj1 wholemount immunohistochemistry); format: in vivo, New Zealand White rabbits; conditions: Day 28; 35 μl topical TID, 80 μM histatin-1 (+100 μM peptide 6); mean±SD
Experimental: Twelve New Zealand White rabbits, approximately 4-6 months old and weighing 2-3 kg were divided into 3 groups of 4 animals and dosed topically three times per day (TID) for 28 days with either 35 μl phosphate buffered saline (PBS), 35 μl 80 μM histatin-1 or 35 μl of 80 μM histatin-1+100 μM peptide 6 following a unilateral surgical keratectomy procedure.
Animals were administered buprenorphine (0.01-0.05 mg/kg, SC) for pain control just prior to the procedure. A second dose of buprenorphine (0.01-0.05 mg/kg, SC) was administered in the evening, and then administered on an as needed basis. Animals were induced for surgery with a ketamine/xylazine cocktail (50 mg/kg ketamine and 10 mg/kg xylazine IM); anesthesia was maintained with isoflurane delivered in oxygen through a mask as needed. Following induction of anesthesia, 5% betadine solution, on autoclaved sterile gauze, was used to clean the periocular (eyelids) area of the surgical eye. […]
While corneas were incubating in their final wash, slides with imaging spacers were prepared. A 0.36, 0.6 mm or combination of the two adhesive imaging spacers (Grace Biolabs cat #SA-S-3L; custom cut to 22×40 mm rectangle with an oblong window cut out) was adhered to a glass slide; spacer thickness was determined by corneal thickness measured on the day of necropsy for treated eyes; control corneas utilized a 0.36 mm spacer. […]

[2] = system: endothelial cells in human non-surgical cornea buttons; test: Corneal button preservation under stressed storage conditions (trypan blue staining); format: cell-based; conditions: 1 μM in standard cornea storage media
Experimental: The effect of 1 μM histatin-1 formulated in Life4° C.™ or Optisol™ Corneal Storage Medium was assessed on the preservation of endothelial cells in 9 pairs of human non-surgical cornea buttons stored under stressed conditions. The tissues were individually stored in 20 mL Bausch & Lomb™ Cornea Tissue Viewing Chambers at room temperature (24±2° C.) for 6 to 14 days, preceded by storage at 4° C. for 3 days. All doners were White/Caucasian origin. The median age was 64 years and ranged from 14 to 73. The amount of time from the time of death to the preservation of the corneas ranged from 4 hours 15 mins to 20 hours 48 mins. Endothelial cell counts at the time of tissue harvest was 2222±240 cells/mm^2. Histatin-1 was added every other day to the right eye (OD) in a volume of 200 μL in an amount sufficient to maintain a concentration of 1 μM. Left eyes (OS) were given an equal volume of PBS. Endothelial cell viability was assessed by trypan blue staining as non-viable area expressed as a percentage of 80% of the central cornea. Briefly, cornea buttons were transferred from storage chambers to viewing wells (Barron Punch Cutting Block), endothelium side up, and 0.06% trypan blue in a volume sufficient to cover the endothelial layer limbus to limbus was applied and left for 90 secs, and then rinsed twice with PBS. […]

## DSHEKRHHGYRRKFHEKHHSHREFPFYGDYGSNYLYDN [histatin-1]
Stromal keratocytes; 35 μl topical TID after keratectomy
  Complete recovery of keratocytes by Day: ≤ 28 days
Stromal keratocytes; Day 7
  Percent keratocyte reduction from baseline: 40.2±3.3%
Stromal keratocytes; Day 10
  Percent keratocyte reduction from baseline: 37.5±2.4%
Stromal keratocytes; Day 14
  Percent keratocyte reduction from baseline: 32.7±15.3%
Stromal keratocytes; Day 21
  Percent keratocyte reduction from baseline: 26.5±6.0%
Stromal keratocytes; Day 28
  Percent keratocyte reduction from baseline: 2.7±13%
[1]
  Recovery and apparent normalization of endothelial cell density starting by Day: ≤ 10 days
[1]; Day 7
  Percent endothelial cell density reduction from baseline: 15.1±2.8%
[1]; Day 10
  Percent endothelial cell density reduction from baseline: 1.1±9.1%
[1]; Day 14
  Percent endothelial cell density reduction from baseline: −0.2±5.9%
[1]; Day 21
  Percent endothelial cell density reduction from baseline: 4.5±7.8%
[1]; Day 28
  Percent endothelial cell density reduction from baseline: 7.4±2.8%
Corneal nerves
  Area of nerve regeneration: 26.1±7 mm^2
  Area of nerve regeneration as percent of initial 8 mm lesion area (50.3 mm^2): 51.9±14%
[2]
  Reduction of stained area in the endothelial area versus PBS: 45%
